According to EP4722207A1, “OXOISOINDOLINYL-SUBSTITUTED TETRAHYDROPYRIMIDINEDIONE DERIVATIVE AND USE THEREOF” (Gluetacs Therapeutics (Shanghai) Co., Ltd., priority 2023, dated 2024):

Experiments:
Format in all cases: cell-based
Conditions in all cases: compounds at 50 nM and 500 nM, 24 hours
WEE1 = target: T1, WEE1 (Homo sapiens, UniProt P30291+Q96SW2); test: Western-blot assay, substrate protein degradation in hPBMCs: WEE1
T1 construct: effects of the compounds of the present disclosure on the expression of target proteins in cells; endogenous in cells; host or cells: human PBMCs (hPBMCs)

IKZF2 = target: T2, IKZF2 (Homo sapiens, UniProt Q96SW2+Q9UKS7); test: Western-blot assay, substrate protein degradation in hPBMCs: IKZF2
T2 construct: effects of the compounds of the present disclosure on the expression of target proteins in cells; endogenous in cells; host or cells: human PBMCs (hPBMCs)

CK1α = target: T3, CK1α (Homo sapiens, UniProt P48729+Q96SW2); test: Western-blot assay, substrate protein degradation in hPBMCs: CK1α
T3 construct: effects of the compounds of the present disclosure on the expression of target proteins in cells; endogenous in cells; host or cells: human PBMCs (hPBMCs)

GSPT1 = target: T4, GSPT1 (Homo sapiens, UniProt P15170+Q96SW2); test: Western-blot assay, substrate protein degradation in hPBMCs: GSPT1
T4 construct: effects of the compounds of the present disclosure on the expression of target proteins in cells; endogenous in cells; host or cells: human PBMCs (hPBMCs)

IKZF1 = target: T5, IKZF1 (Homo sapiens, UniProt Q13422+Q96SW2); test: Western-blot assay, substrate protein degradation in hPBMCs: IKZF1
T5 construct: effects of the compounds of the present disclosure on the expression of target proteins in cells; endogenous in cells; host or cells: human PBMCs (hPBMCs)

IKZF3 = target: T6, IKZF3 (Homo sapiens, UniProt Q96SW2+Q9UKT9); test: Western-blot assay, substrate protein degradation in hPBMCs: IKZF3
T6 construct: effects of the compounds of the present disclosure on the expression of target proteins in cells; endogenous in cells; host or cells: human PBMCs (hPBMCs)
T6 sequence (Q9UKT9 whole entry): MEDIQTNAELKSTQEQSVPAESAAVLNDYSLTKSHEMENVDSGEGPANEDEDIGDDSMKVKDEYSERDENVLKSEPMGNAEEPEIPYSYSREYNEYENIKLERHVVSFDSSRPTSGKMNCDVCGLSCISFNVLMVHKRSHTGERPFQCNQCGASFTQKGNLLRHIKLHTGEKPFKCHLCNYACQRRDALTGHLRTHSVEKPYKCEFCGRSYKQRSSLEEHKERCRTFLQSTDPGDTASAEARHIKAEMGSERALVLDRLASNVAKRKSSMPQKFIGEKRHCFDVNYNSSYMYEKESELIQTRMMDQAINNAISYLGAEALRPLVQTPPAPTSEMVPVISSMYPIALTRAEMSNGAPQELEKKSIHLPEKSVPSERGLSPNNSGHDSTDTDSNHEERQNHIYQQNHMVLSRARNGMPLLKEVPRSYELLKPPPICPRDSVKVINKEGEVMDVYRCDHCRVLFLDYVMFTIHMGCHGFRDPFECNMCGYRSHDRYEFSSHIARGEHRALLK
T6 sequence (Q96SW2 whole entry): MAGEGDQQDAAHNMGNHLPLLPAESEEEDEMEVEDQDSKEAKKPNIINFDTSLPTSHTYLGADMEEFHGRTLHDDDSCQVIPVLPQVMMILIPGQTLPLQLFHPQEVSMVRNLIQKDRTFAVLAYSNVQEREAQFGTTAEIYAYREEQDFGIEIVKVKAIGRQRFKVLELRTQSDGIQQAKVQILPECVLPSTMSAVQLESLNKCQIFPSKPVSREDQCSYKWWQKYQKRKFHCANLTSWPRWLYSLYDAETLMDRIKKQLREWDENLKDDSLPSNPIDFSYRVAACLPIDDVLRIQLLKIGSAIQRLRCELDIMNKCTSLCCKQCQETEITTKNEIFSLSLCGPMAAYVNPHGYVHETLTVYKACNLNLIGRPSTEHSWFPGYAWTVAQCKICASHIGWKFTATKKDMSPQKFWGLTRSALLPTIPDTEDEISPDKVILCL
T6 sequence (Q16531 whole entry partner): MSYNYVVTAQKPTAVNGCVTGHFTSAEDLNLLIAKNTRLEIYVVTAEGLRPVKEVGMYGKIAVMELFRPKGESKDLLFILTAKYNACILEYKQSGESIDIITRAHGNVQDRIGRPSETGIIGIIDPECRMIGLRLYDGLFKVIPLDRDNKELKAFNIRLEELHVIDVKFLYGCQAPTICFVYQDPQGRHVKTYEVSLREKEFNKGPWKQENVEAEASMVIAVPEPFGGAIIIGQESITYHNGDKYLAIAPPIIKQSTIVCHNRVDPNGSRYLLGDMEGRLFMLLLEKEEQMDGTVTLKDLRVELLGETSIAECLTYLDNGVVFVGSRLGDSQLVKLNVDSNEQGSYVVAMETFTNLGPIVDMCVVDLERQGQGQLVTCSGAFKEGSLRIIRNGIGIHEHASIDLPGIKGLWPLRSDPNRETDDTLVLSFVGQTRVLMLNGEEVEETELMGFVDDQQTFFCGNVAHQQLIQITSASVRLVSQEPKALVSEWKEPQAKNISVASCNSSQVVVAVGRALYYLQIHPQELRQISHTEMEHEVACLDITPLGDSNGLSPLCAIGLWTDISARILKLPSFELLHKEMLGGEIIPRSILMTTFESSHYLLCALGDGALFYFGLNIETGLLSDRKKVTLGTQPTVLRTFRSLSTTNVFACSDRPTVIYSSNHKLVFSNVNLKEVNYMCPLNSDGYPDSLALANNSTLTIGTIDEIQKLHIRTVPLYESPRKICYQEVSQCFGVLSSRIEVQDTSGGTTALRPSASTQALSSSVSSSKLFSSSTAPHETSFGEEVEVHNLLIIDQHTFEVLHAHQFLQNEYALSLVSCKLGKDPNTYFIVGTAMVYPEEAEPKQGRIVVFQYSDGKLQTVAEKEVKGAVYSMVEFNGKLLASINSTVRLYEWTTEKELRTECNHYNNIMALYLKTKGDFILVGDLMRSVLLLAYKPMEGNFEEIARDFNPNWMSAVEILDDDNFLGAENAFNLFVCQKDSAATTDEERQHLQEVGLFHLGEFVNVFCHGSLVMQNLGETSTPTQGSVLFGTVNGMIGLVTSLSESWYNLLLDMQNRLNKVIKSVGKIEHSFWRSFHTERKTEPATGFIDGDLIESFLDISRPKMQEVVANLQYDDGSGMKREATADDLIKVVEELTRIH

T4 sequence (P15170 whole entry): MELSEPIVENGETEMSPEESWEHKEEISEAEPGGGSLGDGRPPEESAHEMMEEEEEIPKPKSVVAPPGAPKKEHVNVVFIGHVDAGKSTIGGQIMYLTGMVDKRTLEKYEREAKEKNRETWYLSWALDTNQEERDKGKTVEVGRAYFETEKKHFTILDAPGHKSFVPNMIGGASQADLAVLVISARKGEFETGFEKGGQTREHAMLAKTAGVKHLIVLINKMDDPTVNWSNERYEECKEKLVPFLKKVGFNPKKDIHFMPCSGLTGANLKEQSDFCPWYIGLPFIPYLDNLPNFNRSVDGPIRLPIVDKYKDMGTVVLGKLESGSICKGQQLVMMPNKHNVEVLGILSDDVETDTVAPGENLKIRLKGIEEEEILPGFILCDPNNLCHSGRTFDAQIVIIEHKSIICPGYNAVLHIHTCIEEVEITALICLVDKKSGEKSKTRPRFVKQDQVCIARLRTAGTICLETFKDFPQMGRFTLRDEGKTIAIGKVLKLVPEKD
T4 sequence (Q96SW2 whole entry): as the sequence (Q96SW2 whole entry) above
T4 sequence (Q16531 whole entry partner): as the sequence (Q16531 whole entry partner) above
T5 sequence (Q13422 whole entry): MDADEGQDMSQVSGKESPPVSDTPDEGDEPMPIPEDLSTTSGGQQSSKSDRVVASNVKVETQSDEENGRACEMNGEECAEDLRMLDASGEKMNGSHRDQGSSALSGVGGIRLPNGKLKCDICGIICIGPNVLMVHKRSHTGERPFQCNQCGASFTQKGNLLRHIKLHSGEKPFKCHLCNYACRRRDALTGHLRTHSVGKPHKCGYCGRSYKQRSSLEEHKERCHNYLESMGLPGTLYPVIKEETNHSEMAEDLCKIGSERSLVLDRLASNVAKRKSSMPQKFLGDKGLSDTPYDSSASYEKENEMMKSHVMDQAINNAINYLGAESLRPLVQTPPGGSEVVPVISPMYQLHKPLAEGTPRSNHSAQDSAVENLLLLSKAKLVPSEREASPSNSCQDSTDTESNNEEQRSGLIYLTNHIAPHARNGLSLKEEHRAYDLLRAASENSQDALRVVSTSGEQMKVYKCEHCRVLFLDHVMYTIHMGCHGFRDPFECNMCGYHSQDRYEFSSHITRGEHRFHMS
T5 sequence (Q96SW2 whole entry): as the sequence (Q96SW2 whole entry) above
T5 sequence (Q16531 whole entry partner): as the sequence (Q16531 whole entry partner) above
T3 sequence (P48729 whole entry): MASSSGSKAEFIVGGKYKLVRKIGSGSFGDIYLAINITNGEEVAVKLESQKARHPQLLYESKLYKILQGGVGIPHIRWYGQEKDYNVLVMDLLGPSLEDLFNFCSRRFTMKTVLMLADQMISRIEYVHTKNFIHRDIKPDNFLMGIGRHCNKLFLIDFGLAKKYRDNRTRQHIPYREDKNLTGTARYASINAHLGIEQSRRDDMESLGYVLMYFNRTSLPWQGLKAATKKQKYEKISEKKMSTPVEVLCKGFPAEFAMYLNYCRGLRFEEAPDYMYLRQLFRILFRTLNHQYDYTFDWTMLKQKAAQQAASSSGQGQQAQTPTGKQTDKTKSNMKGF
T3 sequence (Q96SW2 whole entry): as the sequence (Q96SW2 whole entry) above
T3 sequence (Q16531 whole entry partner): as the sequence (Q16531 whole entry partner) above
T2 sequence (Q9UKS7 whole entry): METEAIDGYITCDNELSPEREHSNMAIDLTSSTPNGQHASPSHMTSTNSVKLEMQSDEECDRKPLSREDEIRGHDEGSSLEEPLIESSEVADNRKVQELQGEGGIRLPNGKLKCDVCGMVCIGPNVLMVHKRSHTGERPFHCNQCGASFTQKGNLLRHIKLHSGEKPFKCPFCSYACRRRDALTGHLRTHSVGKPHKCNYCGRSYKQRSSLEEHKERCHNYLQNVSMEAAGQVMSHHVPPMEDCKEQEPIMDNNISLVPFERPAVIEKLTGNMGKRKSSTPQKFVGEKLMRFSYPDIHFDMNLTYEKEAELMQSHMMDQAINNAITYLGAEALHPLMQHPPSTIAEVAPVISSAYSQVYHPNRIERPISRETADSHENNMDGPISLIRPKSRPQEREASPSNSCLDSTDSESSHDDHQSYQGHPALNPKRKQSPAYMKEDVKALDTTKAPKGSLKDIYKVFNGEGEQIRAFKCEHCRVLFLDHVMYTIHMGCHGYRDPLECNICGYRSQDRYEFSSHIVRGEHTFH
T2 sequence (Q96SW2 whole entry): as the sequence (Q96SW2 whole entry) above
T2 sequence (Q16531 whole entry partner): as the sequence (Q16531 whole entry partner) above

SMILES	WEE1 substrate protein remaining % (WEE1)	IKZF2 substrate protein remaining % (IKZF2)	CK1α substrate protein remaining % (CK1α)	GSPT1 substrate protein remaining % (GSPT1)	IKZF1 substrate protein remaining % (IKZF1)	IKZF3 substrate protein remaining % (IKZF3)
Cc1ccc(N2CCN(Cc3ccc4c(c3)CN(N3CCC(=O)NC3=O)C4=O)CC2)cc1 [GT-06771, 1-(1-oxo-5-((4-(p-tolyl)piperazin-1-yl)methyl)isoindolin-2-yl)dihydropyrimidine-2,4(1H,3H)-dione]	A ("A" is defined as 0% ≤ substrate protein remaining % ≤ 80%)	A ("A" is defined as 0% ≤ substrate protein remaining % ≤ 80%)	A ("A" is defined as 0% ≤ substrate protein remaining % ≤ 80%)	A ("A" is defined as 0% ≤ substrate protein remaining % ≤ 80%)	B ("B" is defined as 80%< substrate protein remaining %≤ 100%)	A ("A" is defined as 0% ≤ substrate protein remaining % ≤ 80%)
O=C1CCN(N2Cc3cc(CN4CCN(c5ccc(Cl)cc5Cl)CC4)ccc3C2=O)C(=O)N1 [GT-06772, 1-(5-((4-(2,4-dichlorophenyl)piperazin-1-yl)methyl)-1-oxoisoindolin-2-yl)dihydropyrimidine-2,4(1H,3H)-dione]	A ("A" is defined as 0% ≤ substrate protein remaining % ≤ 80%)	A ("A" is defined as 0% ≤ substrate protein remaining % ≤ 80%)	A ("A" is defined as 0% ≤ substrate protein remaining % ≤ 80%)	A ("A" is defined as 0% ≤ substrate protein remaining % ≤ 80%)	B ("B" is defined as 80%< substrate protein remaining %≤ 100%)	A ("A" is defined as 0% ≤ substrate protein remaining % ≤ 80%)
O=C1CCN(N2Cc3cc(CN4CCN(c5c(Cl)cccc5Cl)CC4)ccc3C2=O)C(=O)N1 [GT-06774, 1-(5-((4-(2,6-dichlorophenyl)piperazin-1-yl)methyl)-1-oxoisoindolin-2-yl)dihydropyrimidine-2,4(1H,3H)-dione]	B ("B" is defined as 80%< substrate protein remaining %≤ 100%)	A ("A" is defined as 0% ≤ substrate protein remaining % ≤ 80%)	A ("A" is defined as 0% ≤ substrate protein remaining % ≤ 80%)	A ("A" is defined as 0% ≤ substrate protein remaining % ≤ 80%)	B ("B" is defined as 80%< substrate protein remaining %≤ 100%)	A ("A" is defined as 0% ≤ substrate protein remaining % ≤ 80%)
O=C1CCN(N2Cc3cc(CN4CCN(c5ccc(Cl)c(Cl)c5)CC4)ccc3C2=O)C(=O)N1 [GT-06775, 1-(5-((4-(3,4-dichlorophenyl)piperazin-1-yl)methyl)-1-oxoisoindolin-2-yl)dihydropyrimidine-2,4(1H,3H)-dione]	B ("B" is defined as 80%< substrate protein remaining %≤ 100%)	A ("A" is defined as 0% ≤ substrate protein remaining % ≤ 80%)	A ("A" is defined as 0% ≤ substrate protein remaining % ≤ 80%)	A ("A" is defined as 0% ≤ substrate protein remaining % ≤ 80%)	B ("B" is defined as 80%< substrate protein remaining %≤ 100%)	A ("A" is defined as 0% ≤ substrate protein remaining % ≤ 80%)
O=C1CCN(N2Cc3cc(CN4CCN(c5ccc(F)cc5F)CC4)ccc3C2=O)C(=O)N1 [GT-06778, 1-(5-((4-(2,4-difluorophenyl)piperazin-1-yl)methyl)-1-oxoisoindolin-2-yl)dihydropyrimidine-2,4(1H,3H)-dione]	B ("B" is defined as 80%< substrate protein remaining %≤ 100%)	B ("B" is defined as 80%< substrate protein remaining %≤ 100%)	A ("A" is defined as 0% ≤ substrate protein remaining % ≤ 80%)	A ("A" is defined as 0% ≤ substrate protein remaining % ≤ 80%)	B ("B" is defined as 80%< substrate protein remaining %≤ 100%)	B ("B" is defined as 80%< substrate protein remaining %≤ 100%)
O=C1CCN(N2Cc3cc(CN4CCN(c5cc(F)ccc5F)CC4)ccc3C2=O)C(=O)N1 [GT-06779, 1-(5-((4-(2,5-difluorophenyl)piperazin-1-yl)methyl)-1-oxoisoindolin-2-yl)dihydropyrimidine-2,4(1H,3H)-dione]	B ("B" is defined as 80%< substrate protein remaining %≤ 100%)	B ("B" is defined as 80%< substrate protein remaining %≤ 100%)	A ("A" is defined as 0% ≤ substrate protein remaining % ≤ 80%)	B ("B" is defined as 80%< substrate protein remaining %≤ 100%)	B ("B" is defined as 80%< substrate protein remaining %≤ 100%)	B ("B" is defined as 80%< substrate protein remaining %≤ 100%)
O=C1CCN(N2Cc3cc(CN4CCN(c5c(F)cccc5F)CC4)ccc3C2=O)C(=O)N1 [GT-06780, 1-(5-((4-(2,6-difluorophenyl)piperazin-1-yl)methyl)-1-oxoisoindolin-2-yl)dihydropyrimidine-2,4(1H,3H)-dione]	B ("B" is defined as 80%< substrate protein remaining %≤ 100%)	B ("B" is defined as 80%< substrate protein remaining %≤ 100%)	A ("A" is defined as 0% ≤ substrate protein remaining % ≤ 80%)	B ("B" is defined as 80%< substrate protein remaining %≤ 100%)	B ("B" is defined as 80%< substrate protein remaining %≤ 100%)	B ("B" is defined as 80%< substrate protein remaining %≤ 100%)
O=C1CCN(N2Cc3cc(CN4CCN(c5ccc(F)c(F)c5)CC4)ccc3C2=O)C(=O)N1 [GT-06781, 1-(5-((4-(3,4-difluorophenyl)piperazin-1-yl)methyl)-1-oxoisoindolin-2-yl)dihydropyrimidine-2,4(1H,3H)-dione]	B ("B" is defined as 80%< substrate protein remaining %≤ 100%)	B ("B" is defined as 80%< substrate protein remaining %≤ 100%)	A ("A" is defined as 0% ≤ substrate protein remaining % ≤ 80%)	A ("A" is defined as 0% ≤ substrate protein remaining % ≤ 80%)	B ("B" is defined as 80%< substrate protein remaining %≤ 100%)	B ("B" is defined as 80%< substrate protein remaining %≤ 100%)
O=C1CCN(N2Cc3cc(CN4CCN(c5cc(F)cc(F)c5)CC4)ccc3C2=O)C(=O)N1 [GT-06782, 1-(5-((4-(3,5-difluorophenyl)piperazin-1-yl)methyl)-1-oxoisoindolin-2-yl)dihydropyrimidine-2,4(1H,3H)-dione]	B ("B" is defined as 80%< substrate protein remaining %≤ 100%)	B ("B" is defined as 80%< substrate protein remaining %≤ 100%)	A ("A" is defined as 0% ≤ substrate protein remaining % ≤ 80%)	A ("A" is defined as 0% ≤ substrate protein remaining % ≤ 80%)	B ("B" is defined as 80%< substrate protein remaining %≤ 100%)	B ("B" is defined as 80%< substrate protein remaining %≤ 100%)
O=C1CCN(N2C(=O)c3ccc(CN4CCN(c5ccc(Cl)cc5)CC4)cc3C2=O)C(=O)N1 [GT-06783, 5-((4-(4-chlorophenyl)piperazin-1-yl)methyl)-2-(2,4-dioxotetrahydropyrimidin-1(2H)-yl)isoindoline-1,3-dione]	B ("B" is defined as 80%< substrate protein remaining %≤ 100%)	B ("B" is defined as 80%< substrate protein remaining %≤ 100%)	B ("B" is defined as 80%< substrate protein remaining %≤ 100%)	B ("B" is defined as 80%< substrate protein remaining %≤ 100%)	B ("B" is defined as 80%< substrate protein remaining %≤ 100%)	A ("A" is defined as 0% ≤ substrate protein remaining % ≤ 80%)
O=C1CCN(N2C(=O)c3ccc(CN4CCN(c5ccc(Br)cc5)CC4)cc3C2=O)C(=O)N1 [GT-06784, 5-((4-(4-bromophenyl)piperazin-1-yl)methyl)-2-(2,4-dioxotetrahydropyrimidin-1(2H)-yl)isoindoline-1,3-dione]	B ("B" is defined as 80%< substrate protein remaining %≤ 100%)	B ("B" is defined as 80%< substrate protein remaining %≤ 100%)	A ("A" is defined as 0% ≤ substrate protein remaining % ≤ 80%)	B ("B" is defined as 80%< substrate protein remaining %≤ 100%)	B ("B" is defined as 80%< substrate protein remaining %≤ 100%)	B ("B" is defined as 80%< substrate protein remaining %≤ 100%)
